Test results: patent publication US20100305198A1, “CATIONIC LIPIDS” (THE UNIVERSITY COURT OF THE UNIVERSITY OF EDINBURG, priority 2007, published 2010)

Key:
HeLa cells = experiment: Transfection of pEGFP-C1 into HeLa cell line (GFP expression by flow cytometry); type: cell-based, Human
Method: (§1) The corresponding cationic lipid 6a-l (1 mM in methanol) with or without DOPE (1 mM in methanol) were mixed in different proportions and the organic solvent removed by evaporation in an oven (37° C.) overnight. The resultant thin films were then hydrated with PBS. The solutions were vortexed (10-20 s) and incubated at ambient temperature for 30 min. Plasmid DNA or siRNA solution (0.04 mg/mL in PBS or another isotonic solution) was subsequently added and the solution vortexed (10-20 s). The lipoplexes were incubated at room temperature for 30 min before being used.
Human HeLa cells were grown in RPMI supplemented with 4 mM glutamine, 10% FCS and 100 units/ml penicillin/streptomycin (RPMI-CM) until 80% confluence. Cells were then suspended using trypsin/EDTA and counted. 2×10^4 cells in 150 μL of RPMI-CM per well were seeded in 96 well plates and incubated overnight. The day afterwards, the different lipoplex formulations were added. Each experiment was performed in quadruplicate, using Effectene® Transfection Reagent (Qiagen) and Lipofectamine™ 2000 (Invitrogen) as positive control and untreated cells as negative control.
After incubation for two days at 37° C. and 5% CO2 (the change of media after transfection was not necessary), the green fluorescent protein (GFP) expression, consequence of transfecting the pEGFP-C1, was evidenced using a fluorescent microscope (Leica) and measured by flow cytometry. For the flow cytometry analysis, cells were washed twice with PBS, detached with trypsin/EDTA, harvested with 2% ferum bovine serum (FBS) in PBS, centrifuged and resuspended with 2% FBS in PBS and analyzed using a BD FACSaria flow cytometer. Transfection efficiency was measured as percentage of transfected cells and total mean fluorescence. […] The number of cells analyzed per sample was 10,000. […] Each point represents a cell. The second column of graphs represents cell number in the y-axis and fluorescence intensity in the x-axis. All the graphs have been divided into two populations of cells according with the fluorescence intensity in order to give a reference for the transfection analysis: in the untransfected cell control P1 comprises 95% of the total number of cells analyzed; when cells are transfected with compound 6f P1 comprises 19.1% of the total number of cells analyzed; within the cells transfected with Effectene® Transfection Reagent P1 comprises 35.8% of the total number of cells analyzed; when cells transfected with Lipofectamine™ 2000, P1 comprises 49.8% of the total number of cells analyzed. FITC-A Mean is the mean fluorescence (arbitrary units) calculated for each population. The mean fluorescence calculated for P2 of the cells transfected with compound 6f is 120,059, which is, by far, the best result of (A)-(D).

GFP-expressing mES cells = experiment: Transfection of siRNA into GFP-expressing mouse stem cells (GFP knock-down, flow cytometry); type: cell-based; conditions: 48 h
Method: as §1
mES cells were grown in GMEM supplemented with 4 mM glutamine and 10% FBS in the absence of antibiotic until 80% confluence. Cells were then suspended using trypsin/EDTA and counted. 2×10^4 cells in 150 μL of GMEM-CM per well were seeded in 96-well plates and incubated overnight. The day afterwards, the different lipoplex formulations were added. […]
After incubation for two days at 37° C. and 5% CO2 (change of media after transfection was not necessary), the green fluorescent protein (GFP) reduced expression was measured by flow cytometry. For the flow cytometry analysis, cells were washed twice with PBS, detached with trypsin/EDTA, harvested with 2% FBS in PBS, centrifuged and resuspended with 2% FBS in PBS and analyzed using a BD FACSaria flow cytometer. […] In Vivo Transfection and Non-Invasive Luminescence Imaging from Living Mice

[1] = tested on: B16F10 mouse melanoma cells; experiment: Transfection of pEGFP-C1 into B16F10 cell line (flow cytometry); type: cell-based
Method: as §1

[2] = tested on: human embryonic kidney (HEK) 293T cell line; experiment: Transfection of pEGFP-C1 into HEK293T cell line (flow cytometry); type: cell-based
Method: as §1

mouse lung = experiment: In vivo transfection of luciferase-reporter plasmid (pLux) by intratracheal instillation and non-invasive luminescence imaging
Method: Mice were anesthetized and intubated following standard protocols. 16 μg of a luciferase-reporter plasmid (pLux, 4-6 mg/mL in PBS or another isotonic buffer) was complexed with Oleyl derivative 6i (N/P 12, 1:2 mol mixture with DOPE) following the protocol described before. Lipoplex formulation (total volume=50 μL) and naked plasmid (16 μg of plasmid in 50 μL of PBS) were then administrated into the lung by direct intratracheal instillation through peroral intubation.
Firefly luciferin (15 mg/kg) was intraperitoneally administrated to the anesthetized mice half an hour before scanning for luminescence. Mice were then imaged every 2 minutes using an IVIS SPECTRUM imaging device. FIGS. 9 and 10 show the non-invasive in vivo luminescence imaging of anesthetized mice transfected with 16 μg of a luciferase-reporter plasmid (pLux) complexed with derivative 6i (left mouse) and naked plasmid (right mouse) 72 and 120 hours after instillation respectively.

Health of mice during the study (mouse lung; lipoplex instilled into the lung, followed on a daily basis) | Structure (SMILES) | P1 population as % of the total number of cells analyzed (HeLa cells; HeLa 48 h after transfection with reporter plasmid, 10,000 cells per sample, P1 = 95% in untransfected control, 6f at N/P 12, 1:2 mol mixture with DOPE) | Mean fluorescence (FITC-A Mean) calculated for P2 (HeLa cells; HeLa 48 h after transfection, N/P 12, 1:2 mol mixture with DOPE) | Transfection of HeLa cells compared with the positive controls (Lip2000 and Effectene) (HeLa cells; pEGFP-C1, 48 h, N/P ratio 12, 1:2 mol mixture with DOPE) | Knock-down of GFP expression compared with Lipofectamine 2000 (GFP-expressing mES cells; GFP-expressing mES cells) | Knock-down of GFP expression (GFP-expressing mES cells; GFP-transformed mouse stem cells, N/P 12, 1:2 mol mixture with DOPE, preliminary assays) | % of GFP-expressing cells calculated via flow cytometry [1] | % of GFP-expressing cells calculated via flow cytometry [2] | Percentage of transfected (GFP-expressing, fluorescent) cells (HeLa cells; HeLa 48 hours after transfection with GFP-reporter plasmid, FIG. 6) | In vivo luminescence after luciferin (mouse lung; 16 μg pLux complexed with lipid (N/P 12, 1:2 mol mixture with DOPE), intratracheal instillation, 72 and 120 hours after instillation)
 | CCCCCCCCCCCCCCC(=O)NC(COC(=O)CCCN)(COC(=O)CCCN)COC(=O)CCCN [Compound 6f, N-[tris-(4-aminobutiryloximethyl)methyl]pentadecamide] | 19.1% | 120,059 arbitrary units | much better than the two positive controls | better than Lipofectamine™ 2000 | 40% | 43% | 62% |  | 
 | CCCCCCCCC=CCCCCCCCCOC(=O)CCC(=O)NC(COC(=O)CCCN)(COC(=O)CCCN)COC(=O)CCCN [Compound 13b, 9-octadecenyl [tris(4-aminobutanoyloxymethyl)methyl]amidosuccinate] |  |  |  |  |  |  |  | 79% | 
behaved healthily | CCCCCCCCC=CCCCCCCCC(=O)NC(COC(=O)CCCN)(COC(=O)CCCN)COC(=O)CCCN [Compound 6i, N-[tris-(4-aminobutiryloximethyl)methyl]-9-octadecenamide] |  |  |  |  |  | 61% | 54% |  | positive luminescence was detected
